Results published in patent US20070280924A1, “Pharmaceutical Preparations For And Treatment Of Ocular Surface and Other Disorders” (priority 2004, published 2007).

What was measured:
[1] = for comparison; cited from earlier work
[2] = test system: human corneal epithelial cell lines (HCE-T and CEPI-17-CI.4) and human conjunctival epithelial cells
Description: Hypromellose, Carbopol or sodium hyaluronate were used to supplement an ocular surface medium at concentrations ranging from 0.0001% to 0.4%. The pH and osmolarity of all of the resultant formulations were controlled and adjusted to be within physiological range. The biophysical properties, i.e. viscosity and surface tension, were determined with a rheometer and an electronic manometer. Two human corneal epithelial cell lines (HCE-T and CEPI-17-CI.4) and two human conjunctival epithelial cells were used to investigate cell proliferation, viability and migration in response to the formulations by means of a luminescence based ATP-assay, a calcein AM/EthD-1 assay and a colony dispersion assay.

| Molecule | Surface tension [1] | Toxicity [2] |
| --- | --- | --- |
| O [water] | about 70 mN/m |  |
| hypromellose |  | low toxicity |
